The values below are quoted from earlier work in US20100316580A1, “ORAL CARE PRODUCT AND METHODS OF USE THEREOF” (Colgate-Palmolive Company, priority 2008, published 2010).

The structures appear in SMILES notation.

Regarding `Oc1cc(Cl)ccc1Oc1ccc(Cl)cc1Cl` [triclosan, 5-chloro-2-(2,4-dichlorophenoxyphenol], the solubility in water result is “only slightly soluble”.
